Where two headings read alike, the source gives them in different places.
Columns and labels:
[1] = system: Mycosphaerella graminicola; Anamorph: Septoria tritici; assay: Fungicidal activity: Leaf Blotch of Wheat (SEPTTR), wheat plants variety Yuma; format: in vivo; parameters: key to SEPTTR 3DC Disease Control: A: 50-100; B: More than 0-Less than 50; C: Not Tested; D: No activity noticed in this bioassay; conditions: for pest or weed control at 100 ppm: Zymoseptoria tritici; for SEPTTR 3DC Disease Control: 100 ppm
Description: Evaluation of Fungicidal Activity: Leaf Blotch of Wheat (Mycosphaerella graminicola; Anamorph: Septoria tritici; Bayer Code […]) Wheat plants (variety Yuma) were grown from seed in a greenhouse in 50% mineral soil/50% soil-less Metro mix until the first leaf was fully emerged, with 7-10 seedlings per pot. These plants were inoculated with an aqueous spore suspension of Septoria tritici either prior to or after fungicide treatments. After inoculation the plants were kept in 100% relative humidity (one day in a dark dew chamber followed by two to three days in a lighted dew chamber) to permit spores to germinate and infect the leaf. The plants were then transferred to a greenhouse at 20° C. for disease to develop.

[2] = system: Puccinia triticina. Synonym: Puccinia recondite f. sp. tritici; assay: Fungicidal activity: Wheat Brown Rust (PUCCRT), wheat plants variety Yuma; format: in vivo; parameters: key to PUCCRT 3DC Disease Control: A: 50-100; B: More than 0-Less than 50; C: Not Tested; D: No activity noticed in this bioassay; conditions: for pest or weed control at 100 ppm: Puccinia triticina; for PUCCRT 3DC Disease Control: 100 ppm
Description: Evaluation of Fungicidal Activity: Wheat Brown Rust (Puccinia triticina. Synonym: Puccinia recondite f. sp. tritici; Bayer Code PUCCRT) Wheat plants (variety Yuma) were grown from seed in a greenhouse in 50% mineral soil/50% soil-less Metro mix until the first leaf was fully emerged, with 7-10 seedlings per pot. These plants were inoculated with an aqueous spore suspension of Puccinia recondite f. sp. tritici either prior to or after fungicide treatments. After inoculation the plants were kept in 100% relative humidity overnight to permit spores to germinate and infect the leaf. The plants were then transferred to a greenhouse set at 24 C for disease to develop.

[3] = 24 h, 1 Day Protectant, read-out: SEPTTR 1DP Disease Control
[4] = 72 h, 3 Day Curative, read-out: SEPTTR 3DC Disease Control
[5] = 24 h, 1 Day Protectant, read-out: PUCCRT 1DP Disease Control
[6] = 72 h, 3 Day Curative, read-out: PUCCRT 3DC Disease Control

| SMILES | pest or weed control at 100 ppm [1, 3] [%] | pest or weed control at 100 ppm [1, 4] [%] | melting point [°C] | pest or weed control at 100 ppm [2, 5] [%] | pest or weed control at 100 ppm [2, 6] [%] | SEPTTR 3DC Disease Control ([1]; 3 Day Curative) | PUCCRT 3DC Disease Control ([2]; 3 Day Curative) |
| --- | --- | --- | --- | --- | --- | --- | --- |
| COc1ccnc(C(=O)N[C@H]2COC(=O)[C@H](Cc3ccc(C)cc3)[C@@H](OC(=O)C(C)C)[C@H](C)OC2=O)c1OCOC(=O)C(C)C [Compound 22] | 0 to 50 | 0 to 50 | 131 to 133 | 50 to 100 | 50 to 100 | – | – |
| COc1ccnc(C(=O)N[C@H]2COC(=O)[C@H](CCOC(=O)c3ccccc3)[C@@H](OC(=O)C(C)C)[C@H](C)OC2=O)c1O [Compound 35, 2-((3S,7R,8R,9S)-3-(3-hydroxy-4-methoxypicolinamido)-8-(isobutyryloxy)-9-methyl-2,6-dioxo-1,5-dioxonan-7-yl)ethyl benzoate] | 50 to 100 | – | 172 to 174 | 50 to 100 | – | D | D |
| COc1ccnc(C(=O)N[C@H]2COC(=O)[C@H](Cc3cccc4ccccc34)[C@@H](OC(=O)C(C)C)[C@H](C)OC2=O)c1O [Compound 15] | 50 to 100 | 0 to 50 | 192 to 197 | 50 to 100 | 0 to 50 | – | – |
| COc1ccnc(C(=O)N[C@H]2COC(=O)[C@H](CC(=O)OC(C)(C)C)[C@@H](OC(=O)C(C)C)[C@H](C)OC2=O)c1O [Compound 47, (3S,6S,7R,8R)-8-(2-tert-butoxy-2-oxoethyl)-3-(3-hydroxy-4-methoxypicolinamido)-6-methyl-4,9-dioxo-1,5-dioxonan-7-yl isobutyrate] | 50 to 100 | 50 to 100 | 192 to 194 | 50 to 100 | 50 to 100 | – | – |
| COc1ccnc(C(=O)N[C@H]2COC(=O)[C@H](Cc3cccnc3)[C@@H](OC(=O)C(C)C)[C@H](C)OC2=O)c1OC(C)=O [Compound 70] | 0 to 50 | 0 to 50 | 151 to 160 | 50 to 100 | 50 to 100 | – | – |
| COc1ccnc(C(=O)N[C@H]2COC(=O)[C@H](CCOC(=O)C3CC3)[C@@H](OC(=O)C(C)C)[C@H](C)OC2=O)c1O [Compound 38] | 50 to 100 | 0 to 50 | 157 to 159 | 50 to 100 | – | – | D |
| COc1ccnc(C(=O)N[C@H]2COC(=O)[C@H](Cc3ccc(Cl)cc3)[C@@H](OC(=O)C(C)C)[C@H](C)OC2=O)c1O [Compound 9] | 50 to 100 | 0 to 50 | 192 to 194 | 50 to 100 | 50 to 100 | – | – |
| COc1ccnc(C(=O)N[C@H]2COC(=O)[C@H](Cc3ccc(C(F)(F)F)cc3)[C@@H](OC(=O)C(C)C)[C@H](C)OC2=O)c1OC(C)=O [Compound 67] | 0 to 50 | – | 127 to 134 | 50 to 100 | 50 to 100 | D | – |
| CC[C@H]1C(=O)OC[C@H](NC(=O)c2nccc(OC)c2O)C(=O)O[C@@H](C)[C@@H]1OC(=O)C(C)C [Compound 53, (3S,6S,7R,8R)-8-ethyl-3-(3-hydroxy-4-methoxypicolinamido)-6-methyl-4,9-dioxo-1,5-dioxonan-7-yl isobutyrate] | 50 to 100 | 0 to 50 | 193 to 195 | 50 to 100 | – | – | D |
| COc1ccnc(C(=O)N[C@H]2COC(=O)[C@H](Cc3ccncc3)[C@@H](OC(=O)C(C)C)[C@H](C)OC2=O)c1O [Compound 5] | 50 to 100 | 50 to 100 | 151 to 156 | 50 to 100 | 50 to 100 | – | – |
| COc1ccnc(C(=O)N[C@H]2COC(=O)[C@H](CI)[C@@H](OC(=O)C(C)C)[C@H](C)OC2=O)c1O [Compound 11] | 50 to 100 | 0 to 50 | 186 to 191 | 50 to 100 | 50 to 100 | – | – |
| COc1ccnc(C(=O)N[C@H]2COC(=O)[C@H](CC3CCCCC3)[C@@H](OC(=O)C(C)C)[C@H](C)OC2=O)c1O [Compound 61, (3S,6S,7R,8R)-8-(cyclohexylmethyl)-3-(3-hydroxy-4-methoxypicolinamido)-6-methyl-4,9-dioxo-1,5-dioxonan-7-yl isobutyrate] | 50 to 100 | 50 to 100 | 188 to 189 | 50 to 100 | 0 to 50 | – | – |
| CCC[C@H]1C(=O)OC[C@H](NC(=O)c2nccc(OC)c2O)C(=O)O[C@@H](C)[C@@H]1OC(=O)C(C)C [Compound 64] | 50 to 100 | 50 to 100 | 165 to 168 | 50 to 100 | 0 to 50 | – | – |
| COc1ccnc(C(=O)N[C@H]2COC(=O)[C@H](Cc3ccc(C(F)(F)F)cc3)[C@@H](OC(=O)C(C)C)[C@H](C)OC2=O)c1O [Compound 6] | 50 to 100 | 0 to 50 | 222 to 226 | 50 to 100 | – | – | D |
| COc1ccnc(C(=O)N[C@H]2COC(=O)[C@H](CCOS(C)(=O)=O)[C@@H](OC(=O)C(C)C)[C@H](C)OC2=O)c1O [Compound 56, (3S,6S,7R,8R)-3-(3-hydroxy-4-methoxypicolinamido)-6-methyl-8-(2(methylsulfonyloxy)ethyl)-4,9-dioxo-1,5-dioxonan-7-yl isobutyrate] | 0 to 50 | 0 to 50 | 153 to 155 | 50 to 100 | 0 to 50 | – | – |
| COc1ccnc(C(=O)N[C@H]2COC(=O)[C@H](CCOC(=O)c3ccc4c(c3)OCO4)[C@@H](OC(=O)C(C)C)[C@H](C)OC2=O)c1O [Compound 39] | 50 to 100 | 0 to 50 | 159 to 161 | 50 to 100 | 0 to 50 | – | – |
| COc1ccnc(C(=O)N[C@H]2COC(=O)[C@H](CC(=O)OC(C)C)[C@@H](OC(=O)C(C)C)[C@H](C)OC2=O)c1O [Compound 49] | 50 to 100 | 50 to 100 | 169 to 170 | 50 to 100 | 50 to 100 | – | – |
| COc1ccnc(C(=O)N[C@H]2COC(=O)[C@H](CCOCc3ccccc3)[C@@H](OC(=O)C(C)C)[C@H](C)OC2=O)c1O [Compound 60, (3S,6S,7R,8R)-8-(2-(benzyloxy)ethyl)-3-(3-hydroxy-4-methoxypicolinamido)-6-methyl-4,9-dioxo-1,5-dioxonan-7-yl isobutyrate] | 50 to 100 | 0 to 50 | 139 to 140 | 50 to 100 | 50 to 100 | – | – |
| COc1ccnc(C(=O)N[C@H]2COC(=O)[C@H](Cc3ccc(-c4ccccc4)cc3)[C@@H](OC(=O)C(C)C)[C@H](C)OC2=O)c1O [Compound 12] | 50 to 100 | 0 to 50 | 214 to 216 | 50 to 100 | 0 to 50 | – | – |
| COc1ccnc(C(=O)N[C@H]2COC(=O)[C@H](Cc3ccc(C)cc3)[C@@H](OC(=O)C(C)C)[C@H](C)OC2=O)c1O [Compound 4] | 50 to 100 | 0 to 50 | 175 to 179 | 50 to 100 | 0 to 50 | – | – |
| COc1ccnc(C(=O)N[C@H]2COC(=O)[C@H](Cc3cccc(C(F)(F)F)c3)[C@@H](OC(=O)C(C)C)[C@H](C)OC2=O)c1OCOC(=O)C(C)C [Compound 24] | 50 to 100 | 0 to 50 | 100 to 103 | 50 to 100 | 50 to 100 | – | – |
| COc1ccnc(C(=O)N[C@H]2COC(=O)[C@H](Cc3cccc(-c4ccccc4)c3)[C@@H](OC(=O)C(C)C)[C@H](C)OC2=O)c1OCOC(=O)C(C)C [Compound 25] | 50 to 100 | 0 to 50 | 55 to 68 | 50 to 100 | 50 to 100 | – | – |

— US9131690B2, “Macrocyclic picolinamides as fungicides” (Dow AgroSciences LLC, priority 2012, dated 2015)
